Tests used:
[1] = system: patients with steroid-resistant UC; test: Dose of concomitant steroid, phase-2a clinical trial; type: in vivo, Japanese patients; settings: n = 3, mean ± SD, placebo 11.3 ± 6.4
Experimental: (§1) After hospitalization, patients received a continuous infusion of the assigned drug for 8 h per day for a total of 14 days. After the final administration of the investigational drug, patients were subjected to safety examinations and then discharged. But, if necessary due to disease activity, continuous hospitalization was allowed. Patients were requested to make an office visit at 4 and 8 weeks. Evaluations of their Mayo scores including endoscopic examinations were done at 2 and 8 weeks, whereas evaluation of the Lichtiger index was done at 2, 4, and 8 weeks. The dose of concomitant steroid was maintained for 2 weeks after drug administration, and then, a reduction in the steroid dose was allowed depending on the disease condition. Changes to the doses of other drugs, such as aminosalicylic acid, were prohibited throughout the trial.
(§2) All data were collected at each institute from March 2017 to April 2019. The primary endpoint was the change in the Mayo scores at 2 weeks. Secondary endpoints included the change in the Mayo scores at 8 weeks and the rate of clinical remission at 2 and 8 weeks, defined as a Mayo score 0; the response rate of the Mayo scores at 2 and 8 weeks, defined as an improvement of a 3-point or more decrease or at least a 30% decrease from baseline; the changes in MES at 2 and 8 weeks; the changes in the Lichtiger index at 2, 4, and 8 weeks; the changes in fecal calprotectin and FIT at 2 weeks; and finally, the changes in the given dose of steroid.
(§3) The significant level for each test was 5%. […] All data are shown as mean ± standard deviation (SD).

[2] = system: patients with steroid-resistant UC; test: Mayo endoscopy subscore (MES), phase-2a clinical trial; type: in vivo, Japanese patients; settings: mean ± SD
Text: (§4) Patients had to meet all criteria, namely, a Mayo score of 6 or more, a rectal bleeding subscore of at least 1, and Mayo endoscopy subscore (MES) of at least 2, at entry. Main exclusion criteria were as follows: patients with fulminant UC, patients with precancerous lesion in the colon, medication history of biologics within the last 3 months, patients with malignancy or any history of malignancy, and patients with active infection. We excluded patients with a systolic blood pressure under 90 mmHg and a pulse rate under 45 bpm for safety reasons due to the vasodilatory effect of AM. All patients provided written informed consent for all study-related procedures and were requested to be hospitalized for 2 weeks.
(§5) Patients were enrolled after confirmation of steroid-resistance defined as at least daily treatment with 30 mg or more of prednisolone. Screening tests including measurements of vital signs, blood and urine examinations, as well as a 12-lead electrocardiography (ECG), were conducted within 2 weeks prior to administration. Demographic data and disease characteristics including endoscopic disease activity of patients were also collected before randomization. Endoscopic subscores were assessed by on-site investigators and were not subjected to central review. Clinical disease activity was assessed by expert doctors according to the Mayo score and Lichtiger index. Stool samples were collected before administration of the investigational drug and after 2 weeks of treatment initiation. Measurements of fecal calprotectin and […] (FITs) were performed by a commercially available laboratory testing service (BML, Tokyo, Japan) in compliance with GCP. Additionally, measurements of complement components including CH50, C1q, C3, and C4 and evaluation of the absolute number of hematopoietic stem cells in the peripheral blood were performed before and after 2, 4, and 8 weeks by other laboratory testing services (SRL medisearch, Tokyo, Japan and LSI medience, Tokyo, Japan, respectively). The absolute number of hematopoietic stem cells in the peripheral blood was measured as CD34-positive cells using CD45FITC/CD34PE, 7AAD kit (Becton Dickinson Immunocytometry System, USA) and flow cytometry.
as §1, §2, §3

steroid-resistant UC = settings: 9 ng/kg/min of AM; real dose might have been higher (1.4-fold dose of bulk powder used); cited from earlier work
Text: A high rate of the placebo effect has been reported in a previous trial for UC [1–3]. High response rates in the placebo group have occasionally obstructed the successful accomplishment of clinical trials for active UC [19]. In this trial, we were concerned about the major impact from the placebo effect because attending patients received hospitalization and bed rest for 2 weeks. Figure 2 illustrates the changes in clinical indexes and fecal markers of each patient at 2 weeks.

[3] = system: patients with steroid-resistant UC; test: Adverse events, safety assessment; settings: for Decrease of blood pressure (cardiovascular disorders) / Flushing (cardiovascular disorders) / Gastrointestinal disorders / Head disconfort (nervous system disorders) / Palpitation (cardiovascular disorders) / Rash / Headache (nervous system disorders) / Increase of transaminase / Muscle pain, back pain / Any adverse events: patients with event (%); for Decrease of blood pressure (cardiovascular disorders) / Flushing (cardiovascular disorders) / Gastrointestinal disorders / Head disconfort (nervous system disorders) / Palpitation (cardiovascular disorders) / Rash / Severe adverse events: placebo 0; for Headache (nervous system disorders) / Serious adverse events: placebo 1 (14%); for Increase of transaminase / Muscle pain, back pain: placebo 2 (29%); for Any adverse events: placebo 4 (57%); for Severe adverse events / Serious adverse events: patients with event
Experimental: Safety evaluations including the evaluation of adverse events (AEs) and serious adverse events (SAEs) were conducted throughout the study. Vital signs, blood and urine tests, and a 12-lead ECG were performed at specified times after administration, with monitoring of ECG being assessed from the beginning of every test drug administration until 2 h after the administration.
All data, except for the PK parameters, were collected using an electronic data collection system (Viedoc) and analyzed by Intellim (Tokyo, Japan), an independent CRO. […] The population included in the safety analysis were all patients who received at least 1 day of administration of the test drug. […] The significant level for each test was 5%. All analyses were performed using SAS version 9.3 (SAS Institute, Cary, NC, USA). […] All data are shown as mean ± standard deviation (SD).

[4] = system: patients with steroid-resistant UC; test: Lichtiger index, phase-2a clinical trial; type: in vivo, Japanese patients; settings: mean ± SD
Text: as §4, §5, §1, §2, §3

[5] = Plasma concentration of adrenomedullin (pharmacokinetics); settings: human, intravenous
Experimental: Serum concentrations of AM were assessed at predose, 4 and 8 h, and 2 h after administration (10 h after the start of drug administration) on 1, 8, and 14 days of the administration. […] Measurements and data processing were carried by the Bozo Research Centre (Tsukuba, Japan). The evaluated pharmacokinetic (PK) parameters included the maximum measured plasma concentration (Cmax); the time to maximum measured plasma concentration (Tmax); and the cumulative area under the plasma concentration–time curve (AUC) from time 0 to time 10 h.
The Cmax and Tmax values were obtained directly from the data, while the AUC was calculated using the Phoenix WinNonlin software 6·1 (Pharsight, CA, USA). All data are shown as mean ± standard deviation (SD).

CC[C@H](C)[C@H](NC(=O)[C@H](CCC(N)=O)NC(=O)[C@H](Cc1c[nH]cn1)NC(=O)[C@H](C)NC(=O)[C@H](CC(C)C)NC(=O)[C@H](CCCCN)NC(=O)[C@H](CCC(N)=O)NC(=O)[C@@H](NC(=O)[C@@H](NC(=O)[C@@H]1CSSC[C@H](NC(=O)CNC(=O)[C@H](Cc2ccccc2)NC(=O)[C@H](CO)NC(=O)[C@H](CCCNC(=N)N)NC(=O)[C@H](CC(C)C)NC(=O)CNC(=O)[C@H](CCC(N)=O)NC(=O)[C@H](Cc2ccccc2)NC(=O)[C@H](CC(N)=O)NC(=O)[C@H](CC(N)=O)NC(=O)[C@H](CCSC)NC(=O)[C@H](CO)NC(=O)[C@H](CCC(N)=O)NC(=O)[C@H](CCCNC(=N)N)NC(=O)[C@@H](N)Cc2ccc(O)cc2)C(=O)N[C@@H](CCCNC(=N)N)C(=O)N[C@@H](Cc2ccccc2)C(=O)NCC(=O)N[C@@H]([C@@H](C)O)C(=O)N1)[C@@H](C)O)C(C)C)C(=O)N[C@@H](Cc1ccc(O)cc1)C(=O)N[C@@H](CCC(N)=O)C(=O)N[C@@H](Cc1ccccc1)C(=O)N[C@H](C(=O)N[C@@H](CC(=O)O)C(=O)N[C@@H](CCCCN)C(=O)N[C@@H](CC(=O)O)C(=O)N[C@@H](CCCCN)C(=O)N[C@@H](CC(=O)O)C(=O)N[C@@H](CC(N)=O)C(=O)N[C@H](C(=O)N[C@@H](C)C(=O)N1CCC[C@H]1C(=O)N[C@@H](CCCNC(=N)N)C(=O)N[C@@H](CO)C(=O)N[C@@H](CCCCN)C(=O)N[C@H](C(=O)N[C@@H](CO)C(=O)N1CCC[C@H]1C(=O)N[C@@H](CCC(N)=O)C(=O)NCC(=O)N[C@@H](Cc1ccc(O)cc1)C(N)=O)[C@@H](C)CC)C(C)C)[C@@H](C)O [Adrenomedullin]
dose of steroid at 8 weeks ([1]; AM 5 ng/kg/min group): 5.0 ± 8.7 mg | dose of steroid at 8 weeks ([1]; AM 10 ng/kg/min group): 10.0 ± 10.0 mg | dose of steroid at 8 weeks ([1]; AM 15 ng/kg/min group): 16.7 ± 12.6 mg | MES (Mayo endoscopic sub-score) ([2]; AM 5 ng/kg/min infusion 8 h/day x 14 days, 2 week, n = 4, baseline 2.3 ± 0.5, placebo 2.0 ± 0.6): 1.5 ± 0.6 | Change of MES ([2]; AM 5 ng/kg/min infusion 8 h/day x 14 days, 2 week, n = 4, placebo -0.5 ± 0.8, P = 0.67 vs. placebo): -0.8 ± 1.0 | MES (Mayo endoscopic sub-score) ([2]; AM 5 ng/kg/min infusion 8 h/day x 14 days, 8 week, n = 3, placebo 2.0 ± 1.4 (n = 2)): 0.7 ± 0.6 | Change of MES ([2]; AM 5 ng/kg/min infusion 8 h/day x 14 days, 8 week, n = 3, placebo -0.5 ± 2.1 (n = 2), P = 0.47 vs. placebo): -1.7 ± 1.2 | MES (Mayo endoscopic sub-score) ([2]; AM 10 ng/kg/min infusion 8 h/day x 14 days, 2 week, n = 5, baseline 2.2 ± 0.4, placebo 2.0 ± 0.6): 2.2 ± 0.8 | Change of MES ([2]; AM 10 ng/kg/min infusion 8 h/day x 14 days, 2 week, n = 5, placebo -0.5 ± 0.8, P = 0.32 vs. placebo): 0.0 ± 0.7 | MES (Mayo endoscopic sub-score) ([2]; AM 10 ng/kg/min infusion 8 h/day x 14 days, 8 week, n = 3, placebo 2.0 ± 1.4 (n = 2)): 2.0 ± 0.0 | Change of MES ([2]; AM 10 ng/kg/min infusion 8 h/day x 14 days, 8 week, n = 3, placebo -0.5 ± 2.1 (n = 2), P = 0.69 vs. placebo): 0.0 ± 0.0 | MES (Mayo endoscopic sub-score) ([2]; AM 15 ng/kg/min infusion 8 h/day x 14 days, 2 week, n = 6, baseline 2.5 ± 0.5, placebo 2.0 ± 0.6): 2.3 ± 1.0 | Change of MES ([2]; AM 15 ng/kg/min infusion 8 h/day x 14 days, 2 week, n = 6, placebo -0.5 ± 0.8, P = 0.49 vs. placebo): -0.2 ± 0.8 | MES (Mayo endoscopic sub-score) ([2]; AM 15 ng/kg/min infusion 8 h/day x 14 days, 8 week, n = 3, placebo 2.0 ± 1.4 (n = 2)): 0.0 ± 0.0 | Change of MES ([2]; AM 15 ng/kg/min infusion 8 h/day x 14 days, 8 week, n = 3, placebo -0.5 ± 2.1 (n = 2), P = 0.27 vs. placebo): -2.0 ± 0.0 | improvement in steroid-resistant UC (steroid-resistant UC): significant improvement | Decrease of blood pressure (cardiovascular disorders) ([3]; AM 5 ng/kg/min, n = 5): 0 | Flushing (cardiovascular disorders) ([3]; AM 5 ng/kg/min, n = 5): 0 | Gastrointestinal disorders ([3]; AM 5 ng/kg/min, n = 5): 2 (40%) | Head disconfort (nervous system disorders) ([3]; AM 5 ng/kg/min, n = 5): 0 | Palpitation (cardiovascular disorders) ([3]; AM 5 ng/kg/min, n = 5): 0 | Rash ([3]; AM 5 ng/kg/min, n = 5): 0 | Headache (nervous system disorders) ([3]; AM 5 ng/kg/min, n = 5): 3 (60%) | Increase of transaminase ([3]; AM 5 ng/kg/min, n = 5): 0 | Muscle pain, back pain ([3]; AM 5 ng/kg/min, n = 5): 0 | Any adverse events ([3]; AM 5 ng/kg/min, n = 5, n = 7): 4 (80%) | Decrease of blood pressure (cardiovascular disorders) ([3]; AM 10 ng/kg/min, n = 7): 1 (14%) | Flushing (cardiovascular disorders) ([3]; AM 10 ng/kg/min, n = 7): 0 | Gastrointestinal disorders ([3]; AM 10 ng/kg/min, n = 7): 0 | Head disconfort (nervous system disorders) ([3]; AM 10 ng/kg/min, n = 7): 1 (14%) | Palpitation (cardiovascular disorders) ([3]; AM 10 ng/kg/min, n = 7): 0 | Rash ([3]; AM 10 ng/kg/min, n = 7): 0 | Headache (nervous system disorders) ([3]; AM 10 ng/kg/min, n = 7): 4 (57%) | Increase of transaminase ([3]; AM 10 ng/kg/min, n = 7): 0 | Muscle pain, back pain ([3]; AM 10 ng/kg/min, n = 7): 0 | Any adverse events ([3]; AM 10 ng/kg/min, n = 7): 6 (86%) | Decrease of blood pressure (cardiovascular disorders) ([3]; AM 15 ng/kg/min, n = 7): 1 (14%) | Flushing (cardiovascular disorders) ([3]; AM 15 ng/kg/min, n = 7): 2 (29%) | Gastrointestinal disorders ([3]; AM 15 ng/kg/min, n = 7): 0 | Head disconfort (nervous system disorders) ([3]; AM 15 ng/kg/min, n = 7): 2 (29%) | Palpitation (cardiovascular disorders) ([3]; AM 15 ng/kg/min, n = 7): 1 (14%) | Rash ([3]; AM 15 ng/kg/min, n = 7): 1 (14%) | Headache (nervous system disorders) ([3]; AM 15 ng/kg/min, n = 7): 4 (57%) | Increase of transaminase ([3]; AM 15 ng/kg/min, n = 7): 1 (14%) | Muscle pain, back pain ([3]; AM 15 ng/kg/min, n = 7): 0 | Any adverse events ([3]; AM 15 ng/kg/min, n = 7): 6 (86%) | Severe adverse events ([3]; AM 5 ng/kg/min, n = 5): 0 | Serious adverse events ([3]; AM 5 ng/kg/min, n = 5): 0 | Severe adverse events ([3]; AM 10 ng/kg/min, n = 7): 0 | Serious adverse events ([3]; AM 10 ng/kg/min, n = 7): 0 | Severe adverse events ([3]; AM 15 ng/kg/min, n = 7): 0 | Serious adverse events ([3]; AM 15 ng/kg/min, n = 7): 0 | Lichitiger index ([4]; AM 5 ng/kg/min infusion 8 h/day x 14 days, at 2 weeks, n = 4, baseline 10.8 ± 2.9, placebo 7.0 ± 5.8): 5.5 ± 5.6 | Lichitiger index ([4]; AM 5 ng/kg/min infusion 8 h/day x 14 days, at 4 weeks, n = 3, placebo 3.5 ± 3.7): 2.0 ± 1.7 | Lichitiger index ([4]; AM 5 ng/kg/min infusion 8 h/day x 14 days, at 8 weeks, n = 3, placebo 2.3 ± 4.0): 1.3 ± 1.2 | Lichitiger index ([4]; AM 10 ng/kg/min infusion 8 h/day x 14 days, at 2 weeks, n = 5, baseline 12.2 ± 0.4, placebo 7.0 ± 5.8): 7.8 ± 3.8 | Lichitiger index ([4]; AM 10 ng/kg/min infusion 8 h/day x 14 days, at 4 weeks, n = 3, placebo 3.5 ± 3.7): 4.7 ± 4.7 | Lichitiger index ([4]; AM 10 ng/kg/min infusion 8 h/day x 14 days, at 8 weeks, n = 3, placebo 2.3 ± 4.0): 5.7 ± 4.5 | Lichitiger index ([4]; AM 15 ng/kg/min infusion 8 h/day x 14 days, at 2 weeks, n = 6, baseline 12.0 ± 1.7, placebo 7.0 ± 5.8): 6.5 ± 4.4 | Lichitiger index ([4]; AM 15 ng/kg/min infusion 8 h/day x 14 days, at 4 weeks, n = 3, placebo 3.5 ± 3.7): 1.3 ± 1.5 | Lichitiger index ([4]; AM 15 ng/kg/min infusion 8 h/day x 14 days, at 8 weeks, n = 3, placebo 2.3 ± 4.0): 0.3 ± 0.6 | AUC(0-t) ([5]; 5 ng/kg/min): 0.152 ± 0.034 ng·h/mL | AUC(0-t) ([5]; 10 ng/kg/min): 0.281 ± 0.039 ng·h/mL | AUC(0-t) ([5]; 15 ng/kg/min): 0.44 ± 0.191 ng·h/mL
